{"source": "patent EP4549424A1", "about": "“NEW LITHIUM EXTRACTING AGENT AND LIQUID ORGANIC MIXTURE THEREOF, AND METHOD FOR EXTRACTING LITHIUM BY MEANS OF EXTRACTION” (Beijing Salt Lake Technology Development Company Limited, priority 2022, dated 2024)", "key": {"[1]": {"assay": "pH of aqueous phase after extraction or stripping"}, "[2]": {"assay": "Liquid-liquid extraction from aqueous lithium-containing solution, ICP detection: sodium;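 note: sodium measured by inductively coupled plasma optical emission spectrometry in the diluted aqueous phase left after shaking with the organic phase and phase separation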"}, "[3]": {"assay": "Liquid-liquid extraction from aqueous lithium-containing solution, ICP detection: lithium;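 note: component concentrations in the aqueous phase were measured by inductively coupled plasma optical emission spectrometry after shaking and phase separation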"}, "[4]": {"assay": "Liquid-liquid extraction from aqueous lithium-containing solution, ICP detection: potassium;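 note: analysis by ICP optical emission spectrometry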", "conditions": "organic phase and phase ratio per example"}, "[5]": {"conditions": "pH 11.48"}, "[6]": {"conditions": "pH 11.48", "remark": "listed apart in the source"}, "[7]": {"conditions": "room temperature; public literature (www.chemicalbook.com; J. Chem. Eng. Data 2008, 53, 8, 1996-1998); cited from earlier work"}, "[8]": {"assay": "physchem", "protocol": "The solution loss rate is evaluated through solubility in water."}, "[9]": {"conditions": "feed B1 (cLi 0.807, cNa 56.12 g/L, pH 11.48), organic phase and phase ratio per example"}, "[10]": {"conditions": "feed B7 (cLi 0.833, cNa 55.60, cK 5.37 g/L, pH 12.05), 26°C, organic phase and phase ratio per example"}, "[11]": {"conditions": "feed B7 (cLi 0.833, cNa 55.60, cK 5.37 g/L, pH 12.05), 26°C"}, "[12]": {"conditions": "feed B3 (cLi 0.937, cNa 119.10, cK 43.03 g/L, pH 9.60), organic phase and phase ratio per example"}}, "note": "Where two headings read alike, the source gives them in different places."}
{"compound": "2-hydroxy-2-phenylacetophenone [Example 41]", "values": [{"measurement": "pH, remaining aqueous phase R1", "setting": "[1]; feed B1 (pH 11.48)", "result": 10.1}, {"measurement": "extraction rate for sodium ions", "setting": "[2]; [9]", "result": 11.8, "unit": "%"}, {"measurement": "extraction rate for lithium ions", "setting": "[3]; [9]", "result": 69.3, "unit": "%"}, {"measurement": "separation factor of Li/Na", "setting": "[3]; [9]", "result": 16.8}]}
{"compound": "2-hydroxy-5-methoxyacetophenone [Example 30]", "values": [{"measurement": "pH, remaining aqueous phase R1", "setting": "[1]; feed B7 (pH 12.05)", "result": 10.30}, {"measurement": "extraction rate for sodium ions", "setting": "[2]; [10]", "result": 10.86, "unit": "%"}, {"measurement": "extraction rate for lithium ions", "setting": "[3]; [10]", "result": 60.26, "unit": "%"}, {"measurement": "separation factor of Li/Na", "setting": "[3]; [10]", "result": 12.4}, {"measurement": "extraction rate for potassium ions", "setting": "[4]; [11]", "result": 7.08, "unit": "%"}]}
{"compound": "2-hydroxydibenzophenone [Example 1]", "values": [{"measurement": "pH, remaining aqueous phase R1", "setting": "[1]; feed B1 (pH 11.48)", "result": 10.12}, {"measurement": "cLi, remaining aqueous phase R1", "setting": "[5]", "result": 0.257, "unit": "g/L"}, {"measurement": "cNa, remaining aqueous phase R1", "setting": "[6]", "result": 50.50, "unit": "g/L"}, {"measurement": "extraction rate for sodium ions", "setting": "[2]; pH 11.48", "result": 10, "unit": "%"}, {"measurement": "extraction rate for lithium ions", "setting": "[3]; pH 11.48", "result": 68.2, "unit": "%"}, {"measurement": "separation factor of Li/Na", "setting": "[3]; pH 11.48", "result": 19.2}]}
{"compound": "O=C(c1ccccc1)c1ccc(O)cc1O", "note": "[2,4-dihydroxydibenzophenone]", "values": [{"measurement": "solubility in pure water", "setting": "[7]", "result": 0.7, "unit": "mg/mL"}]}
{"compound": "COc1ccc(C(=O)c2ccccc2)c(O)c1", "note": "[2-hydroxy-4-methoxydibenzophenone]", "values": [{"measurement": "solubility", "setting": "[8]; water", "result": "< 1", "unit": "mg/mL"}]}
{"compound": "CCCCCCCCOc1cc(O)c(C(=O)c2ccccc2)cc1[N+](=O)[O-]", "note": "[2-hydroxy-4-octyloxy-5-nitrodibenzophenone]", "values": [{"measurement": "solubility in pure water", "setting": "[8]", "result": 0.01, "unit": "mg/mL"}]}
{"compound": "CCCCCCCCOc1ccc(C(=O)c2ccccc2)c(O)c1[N+](=O)[O-]", "note": "[4-octyloxy-3-nitro-2-hydroxydibenzophenone]", "values": [{"measurement": "solubility in pure water", "setting": "[8]", "result": 0.01, "unit": "mg/mL"}]}
{"compound": "CCCCCOc1ccc(C(=O)c2ccccc2)c(O)c1", "note": "[4-pentyloxy-2-hydroxydibenzophenone]", "values": [{"measurement": "solubility in pure water", "setting": "[8]", "result": 0.05, "unit": "mg/mL"}]}
{"compound": "O=C(c1ccccc1)c1cc([N+](=O)[O-])c(OCc2ccccc2)cc1O", "note": "[Example 12, 4-benzyloxy-5-nitro-2-hydroxydibenzophenone]", "values": [{"measurement": "pH, remaining aqueous phase R1", "setting": "[1]; feed B3 (pH 9.60)", "result": 8.66}, {"measurement": "extraction rate for sodium ions", "setting": "[2]; [12]", "result": 10.1, "unit": "%"}, {"measurement": "extraction rate for lithium ions", "setting": "[3]; [12]", "result": 85.7, "unit": "%"}, {"measurement": "separation factor of Li/K", "setting": "[3]; [12]", "result": 66.0}, {"measurement": "separation factor of Li/Na", "setting": "[3]; [12]", "result": 53.4}, {"measurement": "extraction rate for potassium ions", "setting": "[4]; feed B3 (cLi 0.937, cNa 119.10, cK 43.03 g/L, pH 9.60)", "result": 8.3, "unit": "%"}]}
{"compound": "CC(=O)c1cc(I)ccc1O", "note": "[Example 39, 2-hydroxy-5-iodoacetophenone]", "values": [{"measurement": "extraction rate for sodium ions", "setting": "[2]; [10]", "result": 10.3, "unit": "%"}, {"measurement": "extraction rate for lithium ions", "setting": "[3]; [10]", "result": 48, "unit": "%"}, {"measurement": "separation factor of Li/Na", "setting": "[3]; [10]", "result": 8}, {"measurement": "extraction rate for potassium ions", "setting": "[4]; [11]", "result": 8.5, "unit": "%"}]}
{"compound": "O=C(CC(=O)C(F)(F)F)c1ccccc1", "note": "[benzoyltrifluoroacetone]", "values": [{"measurement": "solubility in pure water", "setting": "[7]", "result": 0.24, "unit": "mg/mL"}]}
